Test results: patent US8361998B2, “Compounds and their use as IKACh blockers” (AstraZeneca AB, priority 2010, dated 2013)
Read-outs that look alike come from different tables or passages of the source.

Target: T1, human cardiac ion channel proteins hKir3.1/Kir3.4 (Homo sapiens, UniProt P48544+P48549)
T1 construct: expressed in transfected cells
T1 sequence (P48549 1-501): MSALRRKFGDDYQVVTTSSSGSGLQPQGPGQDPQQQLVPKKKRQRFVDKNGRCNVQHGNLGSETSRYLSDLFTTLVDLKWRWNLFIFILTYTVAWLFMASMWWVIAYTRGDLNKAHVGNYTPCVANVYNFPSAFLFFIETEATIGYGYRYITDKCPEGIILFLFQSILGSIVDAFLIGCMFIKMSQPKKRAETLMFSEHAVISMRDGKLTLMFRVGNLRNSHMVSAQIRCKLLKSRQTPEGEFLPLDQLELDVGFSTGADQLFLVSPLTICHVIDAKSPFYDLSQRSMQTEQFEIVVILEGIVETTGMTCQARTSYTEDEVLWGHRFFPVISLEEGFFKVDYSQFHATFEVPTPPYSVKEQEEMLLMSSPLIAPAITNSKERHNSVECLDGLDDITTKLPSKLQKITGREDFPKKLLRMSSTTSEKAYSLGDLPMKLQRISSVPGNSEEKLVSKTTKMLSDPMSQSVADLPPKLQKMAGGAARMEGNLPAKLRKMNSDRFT
T1 sequence (P48544 1-419): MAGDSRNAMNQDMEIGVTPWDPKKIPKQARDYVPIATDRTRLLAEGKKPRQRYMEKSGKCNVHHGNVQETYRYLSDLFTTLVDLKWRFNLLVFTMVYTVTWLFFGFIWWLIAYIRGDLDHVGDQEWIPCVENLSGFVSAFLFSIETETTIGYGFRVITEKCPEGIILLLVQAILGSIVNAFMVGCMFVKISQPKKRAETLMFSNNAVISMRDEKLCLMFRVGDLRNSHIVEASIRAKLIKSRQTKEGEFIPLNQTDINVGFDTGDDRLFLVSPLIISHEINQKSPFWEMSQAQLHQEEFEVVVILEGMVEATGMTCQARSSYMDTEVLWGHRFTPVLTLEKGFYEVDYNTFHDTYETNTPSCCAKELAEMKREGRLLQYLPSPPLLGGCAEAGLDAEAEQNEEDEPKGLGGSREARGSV
Test: Atomic Absorption Screening (AAS) Rb efflux assay of hKir3.1/Kir3.4 block, carbachol/high K+ stimulated, 10-pt or 7-pt CR
Type: cell-based
From the text: Human KCNJ3 encoding Kir3.1 (Genbank acc. No. NM_002239) was inserted between EcoRI and NotI in the pIRESneo3 vector (Clontech Laboratories, Inc. CA, USA). Human KCNJ5 encoding Kir3.4 (Genbank Acc. No. BC069482) was inserted between EcoR1 and Not1 in the pIRESpuro3 vector (Clontech Laboratories, Inc. CA, USA). A Kozak sequence (GCCACC) was introduced before the start codon ATG of both constructs. Chinese Hamster Ovary K1, CHO-FLP/IN, cells (Invitrogen Corporation, Paisley, UK) were transfected simultaneously using Lipofectamine 2000 reagent (Invitrogen Corporation, Paisley, UK). Geneticin 600 μg/mL (Invitrogen Corporation, Paisley, UK) and puromycin 3 μg/mL (BD Bioscience) were added to the cell culture medium 3 days after transfection. Two weeks after transfection, colonies had appeared and were manually picked and sorted to one cell per well in a 96-well plate. Cells were then tested for Kir3.1 and Kir3.4 expression using membrane potential assay, Western Blot and Immunocytochemistry. […] The cell line was re-sorted by flow cytometry and resulting clones were assayed electrophysiologically using IonWorks (Molecular Devices) and later validated on the Q-Patch (Sophion A/S).
The stable cell line was cultured in DMEM/F12 with Glutamax 1 (Invitrogen Corporation, Paisley, UK), supplemented with foetal bovine serum 10%, puromycin 3 μg/mL, hygromycin 300 μg/mL and geneticin 600 μg/mL (Invitrogen Corporation, Paisley, UK). Care was taken not to seed cells at too low density and cells were passaged at approximately 70-80% confluency. Cells used for patch-clamp experiments were prepared by washing using PBS (—Mg, —Ca^2+), 2 times, detached using Accutase (Sigma). For Q-Patch measurements, storage medium was prepared fresh by adding 1.25 mL of 1M Hepes (GibcoBRL) to 50 mL CHO-SFM II medium (GibcoBRL) and detached cells were diluted to 2 million cells/mL in this medium. Frozen (Cryopreserved) cells were used for Atomic Absorption Screening (AAS) and plated poly-D-lysine 384-well plates (Greiner) at a density of 11,000-13,000 cells/well, the day before assay.
The blocking effects of compounds on the human cardiac ion channel proteins hKir3.1/Kir3.4 were assessed in CHO-K1 cells stably expressing the channel proteins using Atomic Absorption Screening (AAS). Cells were washed and then loaded with 25 μL Rb-loading buffer for three hours at 37° C. After that, the cells were washed again and 25 μL of diluted compound was transferred to the cell plate, incubated for 5 min in RT, and then […] of Carbachol/high K+ (10 μM carbachol and 20 mM KCl final concentration) buffer added to stimulate the cells and open the Kir3.1/Kir3.4 channel. After 10 min stimulation, […] of the supernatant was transferred to a new microplate, 45 μL washing buffer added to the supernatant and the level of Rb in the supernatant was then measured using an Aurora ICR 8000. Compounds were studied at concentrations ranging from 0.003 to 67 μmol/L (dilutions by three, 10-pt CR) or from 0.037 to 27 μmol/L (dilutions by three, 7-pt CR).
Stock solutions of compounds were prepared in DMSO 10 mM and stored at RT. Buffers used for AAS contained (in mM): HEPES 20, NaCl 150, MgCl2 1.0, CaCl2 2.0 and NaH2PO4 0.8 and Glucose 10 (wash 1) or KCl 5 and Glucose 5 (wash 2) or KCl 5 (dilution buffer). The High K^+ channel opener buffer contained (in mM): HEPES 20, NaCl 130, MgCl2 1.0, CaCl2 2.0 and NaH2PO4 0.8 together with KCl 20. Solutions used for Q-Patch (extracellular) in mM: NaCl 145, KCl 4, CaCl2 2.0, MgCl2 1.0, HEPES 10 and glucose 10. The high K^+ extra cellular solution used for Q-Patch in mM: NaCl 96.7, KCl 50.7, CaCl2 2.0, MgCl2 1.0, HEPES 10 and glucose 10 while the intra cellular solution used was (in mM): KCl 120, CaCl2 5.374, MgCl2 1.75, EGTA 10, KOH 3.125, HEPES 10, Na2ATP 4.
Results are given as mean IC50 of >4 replicates (10-pt CR, AAS) or >3 replicates (7-pt CR, AAS). Some of the data in Table 1 are mean values of two or more runs. […]

[1] = printed as IC50 >67 μM in the 10-pt CR assay or IC50 >27 μM in the 7-pt CR assay, assay format per compound not stated, read-out: IC50
[2] = 10-pt CR (0.003 to 67 μmol/L), AAS Rb efflux, CHO-K1 cells expressing hKir3.1/Kir3.4, mean of >4 replicates, read-out: IKACh IC50 10-pt CR, AAS
[3] = 7-pt CR (0.037 to 27 μmol/L), AAS Rb efflux, CHO-K1 cells expressing hKir3.1/Kir3.4, mean of >3 replicates, read-out: IKACh IC50 7-pt CR, AAS

SMILES | IC50 [2] [µM] | further results
CC(C)[C@@H](CN1C[C@@H](O)[C@H](O)C1)N(C)C(=O)c1ccc(C#N)cc1 [4-Cyano-N-((S)-1-((3R,4R)-3,4-dihydroxypyrrolidin-1-yl)-3-methylbutan-2-yl)-N-methylbenzamide] | – | IC50 [1]: > 27 µM
CO[C@H](C)[C@@H](CN1CCCC1)N(C)C(=O)c1ccc(Br)cc1 [Example 3.4, 4-Bromo-N-((2R,3R)-3-methoxy-1-(pyrrolidin-1-yl)butan-2-yl)-N-methylbenzamide] | 2.2 | –
CC(C)[C@H](CN1CCCC1)N(C)C(=O)c1ccccc1OC(F)(F)F [N-Methyl-N-[(1R)-2-methyl-1-(pyrrolidin-1-ylmethyl)propyl]-2-(trifluoromethoxy)benzamide] | – | IC50 [1]: > 27 µM
CC(C)[C@@H](CN1CCC1)N(C)C(=O)c1ccc(F)c(Cl)c1 [Example 1.12, (S)-N-(1-(Azetidin-1-yl)-3-methylbutan-2-yl)-3-chloro-4-fluoro-N-methylbenzamide] | 2.9 | –
CC(C)[C@H](CN1CCCC1)N(C)C(=O)c1ccc(F)c(Cl)c1 [3-Chloro-4-fluoro-N-methyl-N-[(1R)-2-methyl-1-(pyrrolidin-1-ylmethyl)propyl]benzamide] | – | IC50 [1]: > 27 µM
CN(C(=O)c1ccc(Cl)cc1)[C@H](CN1CCCC1)C1CC1 [Example 3.14, (S)-4-Chloro-N-(1-cyclopropyl-2-(pyrrolidin-1-yl)ethyl)-N-methylbenzamide] | 5.7 | –
CC[C@@H](CN1CCCC1)N(C)C(=O)c1ccc(Cl)c(Cl)c1 [Example 17.2, (S)-3,4-Dichloro-N-methyl-N-(1-(pyrrolidin-1-yl)butan-2-yl)benzamide] | 1.4 | –
CC(C)[C@@H](CN1CC(O)C1)N(C)C(=O)c1ccc(Br)cc1 [Example 6.3, (S)-4-Bromo-N-(1-(3-hydroxyazetidin-1-yl)-3-methylbutan-2-yl)-N-methylbenzamide] | 2.5 | –
CC(C)[C@@H](CN1CC(F)C1)N(C)C(=O)c1ccc(F)c(C(F)(F)F)c1 [Example 1.9, (S)-4-Fluoro-N-(1-(3-fluoroazetidin-1-yl)-3-methyl-butan-2-yl)-N-methyl-3-(trifluoromethyl)benzamide] | 3.6 | –
Cc1cc(C(=O)N(C)[C@H](CN2CCC(F)(F)CC2)C(C)C)ccc1F [(S)-N-(1-(4,4-Difluoropiperidin-1-yl)-3-methylbutan-2-yl)-4-fluoro-N,3-dimethylbenzamide] | – | IC50 [1]: > 27 µM
CC(C)[C@H](CN1CCCC1)N(C)C(=O)c1ccc(Br)c(F)c1 [Example 16.60, (R)-4-Bromo-3-fluoro-N-methyl-N-(3-methyl-1-(pyrrolidin-1-yl)butan-2-yl)benzamide] | – | IC50 [3]: 16 µM
CC(C)[C@@H](CN1CCCC1)N(C)C(=O)c1ccccc1C(F)(F)F [Example 16.20, (S)—N-Methyl-N-(3-methyl-1-(pyrrolidin-1-yl)butan-2-yl)-2-(trifluoromethyl)benzamide] | – | IC50 [3]: 14 µM
CC(C)[C@@H](CN1CCCC1)N(C)C(=O)c1c(F)cccc1C(F)(F)F [Example 16.19, (S)-2-Fluoro-N-methyl-N-(3-methyl-1-(pyrrolidin-1-yl)butan-2-yl)-6-(trifluoromethyl)benzamide] | – | IC50 [3]: 14 µM

More lines, main results first:

IC50 [2] [µM] | SMILES | further results
0.34 | COc1ccc(C(=O)N(C)[C@H](CN2CC(O)C2)C2CCC2)cc1C [Example 39.9, (S)—N-(1-Cyclobutyl-2-(3-hydroxyazetidin-1-yl)ethyl)-4-methoxy-N,3-dimethylbenzamide] | –
9.8 | CN(C(=O)c1ccc(F)cc1)[C@H](CN1CC(O)C1)C1CC1 [Example 7.4, (S)-N-(1-Cyclopropyl-2-(3-hydroxyazetidin-1-yl)ethyl)-4-fluoro-N-methylbenzamide] | –
2.7 | CC(C)[C@@H](CN1CC[C@@H](O)C1)N(C)C(=O)c1ccc(Br)cc1 [Example 17.5, 4-Bromo-N—((S)-1-((R)-3-hydroxypyrrolidin-1-yl)-3-methylbutan-2-yl)-N-methylbenzamide] | –
13 | CN(C(=O)c1ccccc1)[C@@H](CN1CC(O)C1)C1CCC1 [Example 35.14, N-[(1R)-1-Cyclobutyl-2-(3-hydroxyazetidin-1-yl)ethyl]-N-methylbenzamide] | –
2.1 | CCc1ccc(C(=O)N(C)[C@@H](CC(C)C)CN2CC(O)C2)cc1 [Example 38.3, 4-Ethyl-N-[(2S)-1-(3-hydroxyazetidin-1-yl)-4-methylpentan-2-yl]-N-methylbenzamide] | –
11 | Cc1cc(C(=O)N(C)[C@H](CN2CC[C@@H](O)C2)C(C)C)ccc1F [Example 17.3, 4-Fluoro-N—((S)-1-((R)-3-hydroxypyrrolidin-1-yl)-3-methylbutan-2-yl)-N,3-dimethylbenzamide] | –
9.4 | C[C@@H](CN1CC(O)C1)N(C)C(=O)c1ccc(Cl)c(F)c1 [Example 40.3, (S)-4-Chloro-3-fluoro-N-(1-(3-hydroxyazetidin-1-yl)propan-2-yl)-N-methylbenzamide] | –
1.9 | CN(C(=O)c1ccc(C(C)(C)C#N)cc1)[C@H](CN1CC(O)C1)C1CCCCC1 [Example 36.5, 4-(2-Cyanopropan-2-yl)-N-[(1S)-1-cyclohexyl-2-(3-hydroxyazetidin-1-yl)ethyl]-N-methylbenzamide] | –
0.25 | CN(C(=O)c1cccc(C(F)F)c1)[C@H](CN1CC(O)C1)C1CCC1 [Example 39.15, (S)—N-(1-Cyclobutyl-2-(3-hydroxyazetidin-1-yl)ethyl)-3-(difluoromethyl)-N-methylbenzamide] | –
